Measurements: BindingDB's records for PubMed 11546835 (Mcgill University, 2001)
Where “and” joins values, the source holds several entries; their conditions need not be identical. Equal entries are not always repeated. Residues, ends and D or L forms follow the SMILES beside them.

Target: Nociceptin receptor (Mus musculus, UniProt P35377)
Sequence (P35377 whole entry): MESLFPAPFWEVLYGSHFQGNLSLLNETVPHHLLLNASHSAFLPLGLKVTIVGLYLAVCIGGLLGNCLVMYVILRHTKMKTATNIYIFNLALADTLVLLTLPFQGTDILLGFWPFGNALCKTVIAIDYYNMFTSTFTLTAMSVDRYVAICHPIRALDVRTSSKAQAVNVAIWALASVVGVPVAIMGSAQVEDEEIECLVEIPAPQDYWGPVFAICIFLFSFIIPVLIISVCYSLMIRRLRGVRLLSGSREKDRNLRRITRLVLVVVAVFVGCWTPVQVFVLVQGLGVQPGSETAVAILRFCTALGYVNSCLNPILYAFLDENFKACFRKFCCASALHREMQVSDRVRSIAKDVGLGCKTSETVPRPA

Question: How did the Ki turn out when `CSCC[C@H](NC(=O)[C@H](Cc1ccccc1)NC(=O)CNC(=O)CNC(=O)[C@@H](N)Cc1ccc(O)cc1)C(=O)O` [2-[(S)-2-(2-{2-[(S)-2-Amino-3-(4-hydroxy-phenyl)-propionylamino]-acetylamino}-acetylamino)-1-oxo-3-phenyl-propylamino]-4-methylsulfanyl-butyric acid] was run?
Answer: 1000 nM

Question: Which Ki does the source give for `Oc1ccc2c3c1OC1c4[nH]c5c(c4CC4(O)CN(CCC314)C(C1CC1)C2)CC1(O)CN2CCC13c1c(ccc(O)c1OC53)CC2C1CC1` (stereo not given) [CAS_105618-26-6] here?
Answer: 898 nM and 7500 nM

Question: How did the Ki turn out when `CC(C)C[C@H](NC(=O)[C@H](Cc1ccccc1)NC(=O)CNC(=O)CNC(=O)[C@@H](N)Cc1ccc(O)cc1)C(=O)N[C@@H](CCCNC(=N)N)C(=O)N[C@@H](CCCCN)C(=O)N[C@@H](Cc1ccc(O)cc1)C(=O)N1CCC[C@H]1C(=O)N[C@@H](CCCCN)C(=O)O` [CB0427223] (H-YGGFLRKYPK-OH) was run?
Answer: 192 nM

Question: For `CC(C)C[C@H](NC(=O)[C@H](Cc1ccccc1)NC(=O)CNC(=O)CNC(=O)[C@@H](N)Cc1ccc(O)cc1)C(=O)N[C@@H](CCCN=C(N)N)C(=O)N[C@@H](CCCN=C(N)N)C(=O)N[C@@H](CCC(N)=O)C(=O)N[C@@H](Cc1ccccc1)C(=O)N[C@@H](CCCCN)C(=O)N[C@H](C(=O)N[C@H](C(=O)N[C@H](C(=O)O)[C@@H](C)O)C(C)C)C(C)C` [Dynorphin B (1-13)], which Ki is on record?
Answer: 33.9 nM and 247 nM

Question: How did the Ki turn out when `C[C@H](NC(=O)CNC(=O)[C@@H](NC(=O)[C@H](Cc1ccccc1)NC(=O)CNC(=O)CNC(=O)[C@@H](N)Cc1ccccc1)[C@@H](C)O)C(=O)O` [OFQ/N (1-7)] (H-FGGFTGA-OH) was run?
Answer: 440 nM and 360 nM
